Test results from publication PMC3400110 (Journal of Medicinal Chemistry, 2009).
Where “and” joins values, the source holds several entries; their conditions need not be identical. Identical values can stand only once. Like-named read-outs stand apart in the source and are kept apart here.

Experiments:
human P-gp-His10 [1] = target: T1, human P-gp-His10 (Homo sapiens, UniProt P08183)
human P-gp-His10 [2] = target: T1, human P-gp-His10; assay: Stimulation of human P-gp-His10 ATPase activity; details: read-out: KM (apparent Michaelis-Menten constant, concentration for half maximal stimulation of ATPase activity)
log P = assay type: physicochemical; details: n-octanol/water
[3] = system: MDCKII-MDR1 transfected cells, which over-express P-gp; assay: Transport and cell association across monolayers of MDCKII-MDR1 cells; details: 5 μM dye, 4.3 mg mL^−1 BSA (23-Se: no added BSA); for PAB (absorptive transport), + inh / PBA (secretory transport), + inh: + […] inhibitor 42
[4] = system: MDCKII-MDR1 transfected cells, which over-express P-gp; details: dog, MDCK-MDR1
P-gp = assay: in vitro; details: dog, MDCK-MDR1

T1 sequence (P08183 whole entry): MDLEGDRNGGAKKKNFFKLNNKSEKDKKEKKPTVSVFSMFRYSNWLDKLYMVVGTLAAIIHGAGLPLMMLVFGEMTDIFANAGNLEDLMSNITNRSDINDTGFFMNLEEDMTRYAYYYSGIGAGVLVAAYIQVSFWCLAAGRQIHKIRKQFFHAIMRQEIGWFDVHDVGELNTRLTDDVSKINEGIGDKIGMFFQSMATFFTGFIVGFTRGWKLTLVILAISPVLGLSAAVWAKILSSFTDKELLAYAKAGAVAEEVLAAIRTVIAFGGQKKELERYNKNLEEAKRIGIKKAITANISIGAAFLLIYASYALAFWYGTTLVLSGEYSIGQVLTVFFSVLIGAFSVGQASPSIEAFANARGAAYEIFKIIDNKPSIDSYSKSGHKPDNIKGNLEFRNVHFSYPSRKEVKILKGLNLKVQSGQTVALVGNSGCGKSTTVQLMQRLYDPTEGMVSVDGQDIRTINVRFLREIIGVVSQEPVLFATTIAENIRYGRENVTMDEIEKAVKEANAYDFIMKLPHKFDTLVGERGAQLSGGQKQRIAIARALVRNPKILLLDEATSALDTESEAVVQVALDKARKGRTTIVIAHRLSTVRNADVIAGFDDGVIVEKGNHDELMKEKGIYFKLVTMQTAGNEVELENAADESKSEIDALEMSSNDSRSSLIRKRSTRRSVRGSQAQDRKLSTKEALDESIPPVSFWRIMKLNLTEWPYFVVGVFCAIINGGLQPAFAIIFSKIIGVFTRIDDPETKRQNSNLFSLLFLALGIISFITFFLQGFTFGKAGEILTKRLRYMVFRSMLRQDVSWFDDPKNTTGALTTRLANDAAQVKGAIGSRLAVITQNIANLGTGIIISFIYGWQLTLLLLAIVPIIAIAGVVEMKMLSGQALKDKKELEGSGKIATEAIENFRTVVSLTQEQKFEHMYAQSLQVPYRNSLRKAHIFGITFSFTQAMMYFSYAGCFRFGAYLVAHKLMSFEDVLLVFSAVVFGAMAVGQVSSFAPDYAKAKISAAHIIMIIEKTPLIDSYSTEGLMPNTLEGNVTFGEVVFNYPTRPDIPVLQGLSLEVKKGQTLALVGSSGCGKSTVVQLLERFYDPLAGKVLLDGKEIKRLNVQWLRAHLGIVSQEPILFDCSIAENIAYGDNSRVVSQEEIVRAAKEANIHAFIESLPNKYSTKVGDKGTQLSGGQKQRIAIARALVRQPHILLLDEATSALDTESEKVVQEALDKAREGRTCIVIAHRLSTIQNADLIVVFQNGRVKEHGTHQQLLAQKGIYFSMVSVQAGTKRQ

Compound	Km (human P-gp-His10 [1])	Km (human P-gp-His10 [2])	also measured
CN(C)c1ccc2c(-c3ccccc3)c3ccc(=[N+](C)C)cc-3[se]c2c1 [Compound 1-Se]	9.1 ± 1.1 µM		
CN(C)c1ccc2c(-c3ccccc3)c3ccc(=[N+](C)C)cc-3[te]c2c1 [Compound 1-Te]	8.3 ± 0.8 µM		
CN(C)c1ccc(-c2c3ccc(=[N+](C)C)cc-3sc3cc(N(C)C)ccc23)cc1 [Compound 5-S]		8.3 ± 1.2 µM	
CN(C)c1ccc(-c2c3ccc(=[N+](C)C)cc-3[se]c3cc(N(C)C)ccc23)cc1 [Compound 5-Se]	10.1 ± 0.7 µM		
CN(C)c1ccc(-c2c3ccc(=[N+](C)C)cc-3[te]c3cc(N(C)C)ccc23)cc1 [Compound 5-Te]	9 ± 0.8 µM		
CN(C)c1cccc(-c2c3ccc(=[N+](C)C)cc-3sc3cc(N(C)C)ccc23)c1 [Compound 7-S]		3.4 ± 0.6 µM	
CN(C)c1cccc(-c2c3ccc(=[N+](C)C)cc-3[se]c3cc(N(C)C)ccc23)c1 [Compound 7-Se]	3.5 ± 0.2 µM		
CN(C)c1cccc(-c2c3ccc(=[N+](C)C)cc-3[te]c3cc(N(C)C)ccc23)c1 [Compound 7-Te]	2 ± 0.1 µM		
COc1cccc(-c2c3ccc(=[N+](C)C)cc-3sc3cc(N(C)C)ccc23)c1 [Compound 10-S]		3.9 ± 0.1 µM	
COc1cccc(-c2c3ccc(=[N+](C)C)cc-3[se]c3cc(N(C)C)ccc23)c1 [Compound 10-Se]	3.3 ± 0.6 µM		
COc1cccc(-c2c3ccc(=[N+](C)C)cc-3[te]c3cc(N(C)C)ccc23)c1 [Compound 10-Te]	3.2 ± 1 µM		
CN(C)c1ccc2c(-c3ccc(C(=S)N4CCCCC4)s3)c3ccc(N(C)C)cc3[s+]c2c1 [Compound 30-S, 3,6-Bis(dimethylamino)-9-(N-piperidyl-2-thienyl-5-thiocarboxamido)thioxanthylium Hexafluorophosphate]		0.36 ± 0.08 µM	
CN(C)c1ccc2c(-c3ccc(C(=S)N4CCCCC4)s3)c3ccc(N(C)C)cc3[te+]c2c1.F[P-](F)(F)(F)(F)F [Compound 30-Te, 3,6-Bisa(dimethylamino)-9-(N-piperidyl-2-thienyl-5-thiocarboxamido)telluroxanthylium Hexafluorophosphate]		0.41 ± 0.03 µM	log P (log P): 0.9; PAB (absorptive transport), + inh [3]: 1.2 ± 0.1 nm/s; PBA (secretory transport), + inh [3]: 0.2 ± 0.01 ×10⁻⁶ cm/s; PAB (absorptive transport) ([3]; no inhibitor): 0.09 ± 0.01 ×10⁻⁶ cm/s; PBA (secretory transport) ([3]; no inhibitor): 2.2 ± 0.8 ×10⁻⁶ cm/s
CN(C)c1ccc2c(-c3ccc(C(=S)N4CCCCC4)s3)c3cc4c5c(c3[s+]c2c1)CCCN5CCC4.F[P-](F)(F)(F)(F)F [Compound 31-S, 12-(Dimethylamino)-2,3,6,7-tetrahydro-9-(N-Piperidyl-2-thienyl-5-thiocarboxamido)-1H,5H-thioxantheno[2,3,4-ij]quinolizin-14-ium Hexafluorophosphate]		0.087 ± 0.012 µM	PAB (absorptive transport), + inh [3]: 0.8 ± 0.1 0.8 ± 0.1 nm s^−1; PBA (secretory transport), + inh [3]: 0.16 ± 0.01 ×10⁻⁶ cm/s; PBA (secretory transport) ([3]; no inhibitor): 5 ×10⁻⁶ cm/s and 5 ± 0.1 ×10⁻⁶ cm/s
CN(C)c1ccc2c(-c3ccc(CCl)cc3)c3ccc(=[N+](C)C)cc-3oc2c1.[Br-] [TMR, tetramethylrosamine]			P BA/AB (ratio of secretory to absorptive transport), + inh [4]: 338 1.6; PAB (absorptive transport) [4]: 3.0 ± 0.1 14 ± 1 nm s^−1; PAB (absorptive transport), + inh [4]: 3.0 ± 0.1 14 ± 1 nm s^−1; PBA (secretory transport), + inh [4]: 1010 ± 10 21 ± 2 nm s^−1; Papp (P-gp): 1.7 ± 0.5 ×10⁻⁶ cm/s
